Entries after “also recorded” stand apart in the source; their conditions may differ.
Assays:
CD8+ T cells [1] = assay: HLA-A11 tetramer CyTOF screen of gastric cancer patient PBMCs; format: cell-based, human; details: for CD8+ T-cells capable of recognizing the peptide antigen (HLA-A11 tetramer staining): PBMCs of 7 gastric cancer patients, validation cohort, CyTOF
Description: In one specific example, as shown schematically in FIG. 7, the method 150 may include HLA tetramer staining of peripheral blood, including preparing HLA tetramers by bacterially expressing and purifying biotin tagged HLA loaded with a UV cleavable peptide. Individual shared candidate antigens are then loaded onto the HLA molecule by UV mediated peptide exchange. Addition of heavy metal barcoded streptavidin causes formation of a tetramer comprising a shared candidate antigen. Peripheral blood (e.g. PBMC) from one or more cohort of patients having the medical condition is stained with a pool of the HLA tetramer and analysis is then done using CyTOF.
(§1) To determine if GC patients have CD8+ T cells that target any of the 77 peptides that were identified in Example 2, a CyTOF screen was conducted on a new cohort of GC patients (the Validation cohort) using MHC tetramer staining of peripheral blood. The CyTOF screen was performed as described in Leong and Newell (2015). Chemically synthesized peptides were supplied by Mimotopes and were stored as dry powder at −20° C. These peptides were loaded onto biotinylated HLA-A11 by UV-mediated exchange. Streptavidin labelled with three heavy metal barcodes was bound to the peptide loaded HLA-A11 to make the HLA-tetramers used for staining peripheral blood (FIG. 7). HLA-A11 tetramer staining of 7 gastric cancer patients derived PBMCs was performed (FIG. 12(a)) and control peptides against the Epstein-Bar Virus (EBV) viral antigen were incorporated as positive control (FIG. 13). […] This antigen was generated from an alternative splicing event of the MARK3 gene identified in Example 2 (FIG. 11(b)). The sequence of the MARK3 splice variant antigen used in the CyTOF studies was RNMSFRIK (SEQ ID NO: 1) and the EBV peptide sequence was […] (SEQ ID NO: 2). […] Patient SC020 was also positive for T Cells that reacted with the positive control peptide from the EBV (FIG. 13). The presence of the MARK3 splice variant antigen in a fresh PBMC isolate from gastric cancer patient, SC020, was further confirmed by a FACS analysis using fluorescently labelled MARK3-A11-RNMSFRIK peptide tetramers (FIG. 12(b)).

CD8+ T cells [2] = assay: HLA-A11 tetramer CyTOF screen of CRC patient PBMC; format: cell-based, human; details: 8 HLA-A11 positive CRC patients; for antigen specific CD8+ T cells detected in CRC patients: validation cohort
Procedure: To determine if CRC patients have CD8+ T cells that target any of the 102 peptides that were identified in Example 12, a CyTOF screen was conducted on a new cohort of 8 CRC patients (validation cohort) using MHC tetramer staining of PBMC (FIG. 19(a)). These CRC patients are all positive for HLA-A11.
The 102 peptides were chemically synthesized by Mimotopes. These peptides were loaded onto biotinylated HLA-A11 by UV-mediated exchange. Streptavidin, labelled with three heavy metal barcodes, was bound to the peptide-loaded HLA-A11 to make the HLA-tetramers used for staining PBMCs.
To increase the sensitivity of detecting antigen-specific T cells, two different sets of heavy metal barcodes were used for each peptide. PBMCs from each patient were stained with these two sets of peptide-loaded HLA tetramers. Frequency co-concordance was used as an indication of specific staining for rare events.

CD8+ T cells [3] = assay: moDC/CD8+ T-cell co-culture of healthy donors, tetramer FACS (immunogenicity); format: cell-based, human; details: HLA-A11 positive healthy donors, SVP 2.5 μM loaded moDC, 10 days co-culture, PE/APC tetramers
Description: Antigen specific T-cells for LRR1, GRINA, and ZNF670 were initially identified in the SVP/HLA-A11 tetramer CyTOF screen (as described in Example 13). The immunogenicity of these targets was further assessed by testing whether antigen specific T-cells could be expanded in the PBMC of healthy donors who were HLA-A11 positive. PBMC were obtained from healthy donors and an aliquot was used to isolate monocytes (CD14 positive selection kit, STEMCELL Technologies) for subsequent differentiation to dendritic cells. Briefly, differentiation of monocytes to dendritic cells was carried out by culturing the isolated CD14 cells with IL4 (10 ng/ml) and GM-CSF (800 IU/ml) for 3 days and maturating the dendritic cells with IL4 (10 ng/ml), GM-CSF (800 IU/ml), LPS (10 ng/ml), IFN-γ (100 IU/ml), and the LRR1, GRINA and ZNF670 HLA-A11 SVP (2.5 μM) overnight. These monocyte derived dendritic cells were then cultured with CD8+ T cells which were isolated from another aliquot of PBMCs from the same donor using EasySep CD8 T cell isolation kit, STEMCELL Technologies. After 10 days of co-culture, expansion of antigen-specific T cells was detected by staining with tetramers (labelled with PE and APC) that have been loaded with the LRR1, GRINA and ZNF670 HLA-A11 SVP. […] Antigen-specific T-cells for these SVPs are not observed in CD8+ T cells in unstimulated PBMCs from healthy donors, whereas SVP-specific T-cells can be observed when they have been co-cultured with monocyte-derived dendritic cells that have been loaded with the SVP. In summary, antigen-specific CD8 T cells for LRR1, GRINA and ZNF670 were able to be generated in healthy donors, showing that these SVPs are immunogenic.

CD8+ T cells [4] = assay: HLA-A24 tetramer CyTOF screen of CRC patient PBMC; format: cell-based, human; details: 10 HLA-A24 positive CRC patients, validation cohort
Procedure: To determine whether CRC patients have CD8+ T cells that target any of the 75 SVPs that bind to HLA-A24, a CyTOF screen was conducted on a new cohort of 10 HLA-A24 positive CRC patients (validation cohort) using MHC tetramer staining of PBMC (procedure for performing this screen is similar to that described in Example 13). In total, antigen-specific CD8+ T cells that target eight splice variant peptides were identified from this screen.

CTLs = assay: ELISPOT assay for IFN-γ in PBMCs from healthy donors; format: cell-based, human; details: PBMCs from healthy donors with or without stimulation with peptide
Procedure: T cells having a shared splice variant antigen, such as MARK3, can be expanded ex-vivo. In the case of MARK3, PBMC were obtained from healthy donors. An aliquot of these PBMCs was used to isolate monocytes (Human Monocyte Isolation Kit, STEMCELL Technologies) for subsequent differentiation to dendritic cells (ImmunoCult Dendritic Cell Culture kit, STEMCELL Technologies). These monocyte derived dendritic cells were treated with mitomycin C (30 μg/ml) to prevent outgrowth of these cells. These dendritic cells were then loaded with MARK3 peptide and used as antigen-presenting cells. CD8+ T cells were isolated (EasySep Human CD8+ T cell isolation kit, STEMCELL Technologies) from another aliquot of PBMCs and these cells were co-cultured with the antigen-presenting cells to stimulate the expansion of MARK3 specific T cells. To generate sufficient number of MARK3-specific T cells for functional characterisation or TCR identification, MARK3 peptide loaded monocyte derived dendritic cells or artificial antigen presenting cells may be used to further stimulate expansion of MARK3 specific T cells. Expansion of MARK3 specific T cells using the above method can be used for the treatment of patients.
Characterization of the MARK3 antigen and CD8+T lymphocytes was carried out by first determining whether MARK3 specific CTLs could be expanded in healthy donor PBMCs (as shown in Example 6). […]

CD8 T cells = assay: FACS analysis with fluorescently labelled A11 MHC tetramers; format: cell-based, human; details: fresh PBMC isolate from gastric cancer patient SC020
Procedure: as §1, with “The presence of the MARK3 splice variant antigen in a fresh PBMC isolate from gastric cancer patient, SC020, was further confirmed by a FACS analysis using fluorescently labelled MARK3-A11-RNMSFRIK peptide tetramers (FIG. 12(b)).” left out

[5] = biological target: T1, MARK3 splice variant (inclusion of exon 24; MARK3 isoforms 1 and 3) peptide on HLA-A*11 (human); assay: multimer staining
T1 peptide: RNMSFRFIK

[6] = listed as MARK3 splice variant antigen

Q: “SSCSSCPLSK (EBV peptide sequence) [control peptide against the Epstein-Bar Virus (EBV) viral antigen, positive control, reference compound]” was tested. Which “CD8+ T-cells capable of recognizing the peptide antigen (HLA-A11 tetramer staining)” value (from here on “CD8+ T-cells capable”) (CD8+ T cells [1]) did it give?
A: Its value is “positive”.

Q: Which “antigen specific CD8+ T cells detected in CRC patients” value (CD8+ T cells [2]) does the source give for “LTMAVKAEK (ZC3HAV splice variant antigen) [ZC3HAV1]” here?
A: The value was “could be identified in one or more CRC patients”.

Q: With “SIRQAFIRK (GRINA splice variant antigen)” as the molecule, how does the “expansion of antigen-specific CD8+ T cells (immunogenicity)” value (CD8+ T cells [3]) read?
A: Its value is “observed only after stimulation; also recorded: immunogenic”.

Q: What about the “antigen specific CD8+ T cells detected in CRC patients” value (CD8+ T cells [2]) of the same molecule?
A: Its value is “could be identified in one or more CRC patients”.

Q: “SYHSIPSLPRF (LRR1 splice variant antigen)” was tested. Which “antigen specific CD8+ T cells detected in CRC patients” value (CD8+ T cells [4]) did it give?
A: Its value is “detected in CRC patients”.

Q: What about the “antigen specific CD8+ T cells detected in CRC patients” value (CD8+ T cells [4]; listed as SEQ ID NO: 51) of the same molecule?
A: Its value is “detected”.

Q: Which “number of CRC patients in which detected” value (CD8+ T cells [2]) does the source give for “SSFYALEEK (NBPF9 splice variant antigen)” here?
A: Its value is “two”.

Q: What about the “antigen specific CD8+ T cells detected in CRC patients” value (CD8+ T cells [2]) of the same molecule?
A: Its value is “could be identified in one or more CRC patients”.

Q: How did the “antigen specific CD8+ T cells detected in CRC patients” value (CD8+ T cells [2]) turn out when “VTSPSRRSK (CAMKK1 splice variant antigen)” was run?
A: The value was “could be identified in one or more CRC patients”.

Q: Which “antigen specific CD8+ T cells detected in CRC patients” value (CD8+ T cells [4]) does the source give for “KWPPATETL (MZF1 spliced variant antigen)” here?
A: The value was “detected”.

Q: For VIVSASRTK (YAF2 splice variant antigen), which “antigen specific CD8+ T cells detected in CRC patients” value (CD8+ T cells [2]) is on record?
A: Its value is “could be identified in one or more CRC patients”.

Q: What does the source list for “SCVSPSSELK (ZNF670 splice variant antigen)”?
A: expansion of antigen-specific CD8+ T cells (immunogenicity) (CD8+ T cells [3]): observed only after stimulation; also recorded: immunogenic; number of CRC patients in which detected (CD8+ T cells [2]): two; antigen specific CD8+ T cells detected in CRC patients (CD8+ T cells [2]): could be identified in one or more CRC patients

Q: How did the “positive hit out of 7 samples” value (CD8+ T cells [1]; CyTOF screen, 7 GC patients) turn out when “RNMSFRFIK (MARK3 splice variant) [MARK3 peptide]” was run?
A: The value was 14%.

Q: And the “CD8+ T-cells capable” value (CD8+ T cells [1])?
A: Its value is “one out of 7”.

Q: And the “CD8+ T-cells capable” value (CD8+ T cells [1]; [6])?
A: The value was “one of the patients, SC020, was found to be positive”.

Q: And the “CD8+ T-cells capable” value (CD8+ T cells [1]; listed as MARK3 splice variant peptide)?
A: The value was “has CTLs that react”.

Q: What about the “IFN-γ secreting CTLs” value (CTLs) of the same molecule?
A: Its value is “IFN-γ secreting CTLs are only observed when PBMCs were stimulated with MARK3 peptide”.

Q: And the “IFN-γ secreting CTLs” value (CTLs; [6])?
A: The value was “antigenic”.

Q: And the “presence of antigen-specific CD8 T cells confirmed by FACS” value (CD8 T cells)?
A: The value was “confirmed”.

Q: With SLPRFGYRK (LRR1 splice variant antigen) as the molecule, how does the “expansion of antigen-specific CD8+ T cells (immunogenicity)” value (CD8+ T cells [3]) read?
A: The value was “observed only after stimulation; also recorded: immunogenic”.

Q: What about the “antigen specific CD8+ T cells detected in CRC patients” value (CD8+ T cells [2]) of the same molecule?
A: The value was “could be identified in one or more CRC patients”.

Q: What about the “antigen specific CD8+ T cells detected in CRC patients” value (CD8+ T cells [2]; listed as SEQ ID NO: 36) of the same molecule?
A: Its value is “detected”.

Q: And the “antigen specific CD8+ T cells detected in CRC patients” value (CD8+ T cells [2]; listed as SLPRFGYRK)?
A: The value was “detected in CRC patients”.

Q: “SQLDFVKTRK (PARD3 splice variant antigen)” was tested. Which “antigen specific CD8+ T cells detected in CRC patients” value (CD8+ T cells [2]) did it give?
A: Its value is “could be identified in one or more CRC patients”.

B1: MARK3-specific TCR (MARK3 TRA chain and MARK3 TRB chain) (TCR, V domains shown)
Valpha: SQKIEQNSEALNIQEGKTATLTCNYTNYSPAYLQWYRQDPGRGPVFLLLIRENEKEKRKERLKVTFDTTLKQSLFHITASQPADSATYLCAPYTGGFKTIFGAGTRLFVKA
Vbeta: DTGVSQNPRHKITKRGQNVTFRCDPISEHNRLYWYRQTLGQGPEFLTYFQNEAQLEKSRLLSDRFSAERPKGSFSTLEIQRTEQGDSAMYLCASSSPRVGYGYTFGSGTRLTVV
Q: Does B1 bind [5]?
A: Result: recognises
